Test results: the supplement of paper PMC11208160

Experiment: recombinant UMI read abundance after kanamycin selection (control-corrected) (log10(CPM+1)); higher = more efficient recombination; extreme values may be limits of the assay; sequences stand for … in AGTGCAGAGAAAATCGGCCAGTTTTCTCTGCCTGCAGTCCGCATGCCGTGGGACCCCTTGGGTTCTAACCTGTTGCCTAGATTTATGCAGCGGACTGCCTTTCTCCCAAAGTGATAAACCGG…AGGTTGGTTTCACT; site = the 11-nt donor
Protocol: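 Pooled E. coli donor-specificity screen for the IS621 bridge recombinase. Each library member carries a reprogrammed 11-nt donor and a full-length LE bridge RNA expressed in cis from the natural promoter, with a paired donor-binding loop (8-nt LDG + 4-nt RDG) and a target-binding loop fixed to T5. It is co-electroporated with a T5 target plasmid; recombinase is induced with 0.07 mM IPTG and recombinants are selected on kanamycin. UMIs are counted as CPM, averaged over two biological replicates and corrected by the unselected control. Molecule = full bridge RNA written as DNA, built from the T5 scaffold: LDG = donor specificity nt 1-8, RDG = reverse complement of nt 8-11.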
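Note: IS621 bridge recombinase in Escherichia coli cells against a fixed T5 target plasmid.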

Sequence	recombinant UMI read abundance (log10)
ACAATATCATGGACCGGTTTTCCCGGTAATCCGTATTTGCA (site ACAATATCTTG)	2.85
ACAATATCATGGACCGGTTTTCCCGGTAATCCGTATTTGCA (site ACACTATCTTG)	1.83
ACAATATCATGGACCGGTTTTCCCGGTAATCCGTATTTGCA (site ACAGTATCTTG)	2.35
ACAATATCATGGACCGGTTTTCCCGGTAATCCGTATTTGCA (site ACATTATCTTG)	1.81
ACAATCTCATGGACCGGTTTTCCCGGTAATCCGTATTTGCA (site ACAATCTCTTG)	2.51
ACAATCTCATGGACCGGTTTTCCCGGTAATCCGTATTTGCA (site ACAGTATCTTG)	1.54
ACACACCCATGGACCGGTTTTCCCGGTAATCCGTATTTGTG (site ACACACCCTCA)	0.012
ACACATCCATGGACCGGTTTTCCCGGTAATCCGTATTTGAA (site ACACATCCTAT)	0.229
ACACATCCATGGACCGGTTTTCCCGGTAATCCGTATTTGAA (site ACACATCCTCT)	0
ACACATCCATGGACCGGTTTTCCCGGTAATCCGTATTTGAA (site ACACATCCTGT)	0
ACACATCCATGGACCGGTTTTCCCGGTAATCCGTATTTGAA (site ACACATCCTTT)	1.72
ACACATCCATGGACCGGTTTTCCCGGTAATCCGTATTTGAG (site ACACATCCTAT)	0.549
ACACATCCATGGACCGGTTTTCCCGGTAATCCGTATTTGAG (site ACACATCCTCT)	0.668
ACACATCCATGGACCGGTTTTCCCGGTAATCCGTATTTGAG (site ACACATCCTGT)	0
ACACATCCATGGACCGGTTTTCCCGGTAATCCGTATTTGAG (site ACACATCCTTT)	0.381
ACACCTACATGGACCGGTTTTCCCGGTAATCCGTATTTGTG (site ACAACTACTCA)	0.0154
ACACCTACATGGACCGGTTTTCCCGGTAATCCGTATTTGTG (site ACACCTACTCA)	0.165
ACACCTACATGGACCGGTTTTCCCGGTAATCCGTATTTGTG (site ACAGCTACTCA)	0.0267
ACACCTACATGGACCGGTTTTCCCGGTAATCCGTATTTGTG (site ACATCTACTCA)	0.028
ACACGAGCATGGACCGGTTTTCCCGGTAATCCGTATTTGTC (site ACACGAACTGA)	2.63
ACACGAGCATGGACCGGTTTTCCCGGTAATCCGTATTTGTC (site ACACGACCTGA)	0
ACACGAGCATGGACCGGTTTTCCCGGTAATCCGTATTTGTC (site ACACGAGCTGA)	2.61

Sequence	recombinant UMI read abundance (log10)
ACACGAGCATGGACCGGTTTTCCCGGTAATCCGTATTTGTC (site ACACGATCTGA)	2.27
ACACTAGCATGGACCGGTTTTCCCGGTAATCCGTATTTGCA (site ACACTAGCTTG)	1.05
ACACTAGCATGGACCGGTTTTCCCGGTAATCCGTATTTGCA (site ACAGTATCTTG)	0.00925
ACACTTACATGGACCGGTTTTCCCGGTAATCCGTATTTGGG (site ACACTTACTCC)	0.464
ACACTTCCATGGACCGGTTTTCCCGGTAATCCGTATTTGAC (site ACACATCCTGT)	1.66
ACACTTCCATGGACCGGTTTTCCCGGTAATCCGTATTTGAC (site ACACCTCCTGT)	1.29
ACACTTCCATGGACCGGTTTTCCCGGTAATCCGTATTTGAC (site ACACGTCCTGT)	1.08
ACACTTCCATGGACCGGTTTTCCCGGTAATCCGTATTTGAC (site ACACTTCCTGT)	0.338
ACAGAATCATGGACCGGTTTTCCCGGTAATCCGTATTTGCT (site ACAGAATCTAG)	2.19
ACAGAATCATGGACCGGTTTTCCCGGTAATCCGTATTTGCT (site ACAGTATCTTG)	0.97
ACAGAATCATGGACCGGTTTTCCCGGTAATCCGTATTTGGA (site ACAGAATCTTC)	2.48
ACAGAATCATGGACCGGTTTTCCCGGTAATCCGTATTTGGA (site ACAGTATCTTG)	0
ACAGAGACATGGACCGGTTTTCCCGGTAATCCGTATTTGCG (site ACAGAGACTCG)	2.84
ACAGAGACATGGACCGGTTTTCCCGGTAATCCGTATTTGCG (site CCAGAGACTCG)	2.19
ACAGAGACATGGACCGGTTTTCCCGGTAATCCGTATTTGCG (site GCAGAGACTCG)	1.18
ACAGAGACATGGACCGGTTTTCCCGGTAATCCGTATTTGCG (site TCAGAGACTCG)	2.18
ACAGATACATGGACCGGTTTTCCCGGTAATCCGTATTTGCC (site ACAGATACTGG)	1.19
ACAGCATCATGGACCGGTTTTCCCGGTAATCCGTATTTGTA (site ACAGCATCTTA)	2.85
ACAGCATCATGGACCGGTTTTCCCGGTAATCCGTATTTGTA (site ACAGTATCTTG)	0
ACAGCGCCATGGACCGGTTTTCCCGGTAATCCGTATTTGTT (site ACAGCGCCTAA)	0.431
ACAGGGCCATGGACCGGTTTTCCCGGTAATCCGTATTTGCT (site ACAGGGCCTAG)	1.1
ACAGGTCCATGGACCGGTTTTCCCGGTAATCCGTATTTGGC (site ACAGGTCCTGC)	1.02

Sequence	recombinant UMI read abundance (log10)
ACAGTAGCATGGACCGGTTTTCCCGGTAATCCGTATTTGCA (site ACAGTAACTTG)	2.58
ACAGTAGCATGGACCGGTTTTCCCGGTAATCCGTATTTGCA (site ACAGTACCTTG)	0
ACAGTAGCATGGACCGGTTTTCCCGGTAATCCGTATTTGCA (site ACAGTAGCTTG)	2.85
ACAGTAGCATGGACCGGTTTTCCCGGTAATCCGTATTTGCA (site ACAGTATCTTG)	2
ACAGTATCATGGACCGGTTTTCCCGGTAATCCGTATTTGCT (site ACAGTATCTAG)	2.8
ACAGTATCATGGACCGGTTTTCCCGGTAATCCGTATTTGCT (site ACAGTATCTCG)	1.11
ACAGTATCATGGACCGGTTTTCCCGGTAATCCGTATTTGCT (site ACAGTATCTGG)	2.29
ACAGTATCATGGACCGGTTTTCCCGGTAATCCGTATTTGCT (site ACAGTATCTTG)	2.22
ACAGTCTCATGGACCGGTTTTCCCGGTAATCCGTATTTGGA (site ACAGTATCTTG)	0
ACAGTCTCATGGACCGGTTTTCCCGGTAATCCGTATTTGGA (site ACAGTCTCTTC)	2.89
ACAGTGGCATGGACCGGTTTTCCCGGTAATCCGTATTTGCG (site ACAGTGGCTCG)	1.93
ACAGTGTCATGGACCGGTTTTCCCGGTAATCCGTATTTGCC (site ACAGTATCTTG)	2.05
ACAGTGTCATGGACCGGTTTTCCCGGTAATCCGTATTTGCC (site ACAGTGTCTGG)	2.88
ACAGTTGCATGGACCGGTTTTCCCGGTAATCCGTATTTGCA (site ACAGTATCTTG)	0
ACAGTTGCATGGACCGGTTTTCCCGGTAATCCGTATTTGCA (site ACAGTTGCTTG)	1.81
ACAGTTTCATGGACCGGTTTTCCCGGTAATCCGTATTTGCA (site ACAGTATCTTG)	2.55
ACAGTTTCATGGACCGGTTTTCCCGGTAATCCGTATTTGCA (site ACAGTCTCTTG)	2.43
ACAGTTTCATGGACCGGTTTTCCCGGTAATCCGTATTTGCA (site ACAGTGTCTTG)	1.52
ACAGTTTCATGGACCGGTTTTCCCGGTAATCCGTATTTGCA (site ACAGTTTCTTG)	2.24
ACATACGCATGGACCGGTTTTCCCGGTAATCCGTATTTGGC (site ACATACGCTGC)	2.78
ACATCGACATGGACCGGTTTTCCCGGTAATCCGTATTTGTG (site ACATCAACTCA)	0.397
